Consider six compounds from paper PMC10731632, “Is Smaller Better? Cu^2+/Cu^+ Coordination Chemistry and Copper-64 Radiochemical Investigation of a 1,4,7-Triazacyclononane-Based Sulfur-Rich Chelator” (Inorganic Chemistry, 2023).

A value given as a limit tells only on which side of the number the result lay.

Details of data set [1]: method as in PMID 35807404. Conditions: after 24 h; cited from earlier work.
Data set [2] can be described thus: Acidity constants (pKa) of the free ligands by pH-dependent 1H NMR. It is filed as physicochemical. Conditions: water, T = 25 °C. On the procedure:
(§1) Subsequently, the acid–base properties of NO3S and TACN-n-Bu were appraised. This study is a prior fundamental step before the investigation of complexation equilibria, since the proton represents a competitor of the metal ion for the interaction with the donor sites having Brønsted and Lewis acid–base properties, such as the amines of the TACN scaffold. […] The ionic strength (I) was adjusted using 0.15 M NaNO3. […] Therefore, additional pKa measurements were performed in a 1:1 water/methanol mixture, where no precipitation was detected. The acidity constants of TACN-n-Bu were derived upon analysis of the pH-potentiometric titrations data and pH-dependent ^1H NMR spectra in water (Figure S9B). The acidity constant values of both ligands are gathered in Table 1 along with the values of the unsubstituted macrocycle (i.e., TACN) and the methyl-functionalized one (i.e., 1,4,7-trimethyl-1,4,7-triazacyclonane, TACN-Me) derived from the literature.[30]
However, the chemical shift of all of the other signals manifests a noticeable pH dependence. The most pronounced variation is experienced by the NCH2 protons of the ring, possibly because the deprotonation processes led to a marked relaxation of the ring constraint caused by the H^+−H^+ repulsions. An analogous pH dependency of the chemical shifts is observed for TACN-n-Bu, even if in this case a slowed exchange between the differently protonated forms can be recognized from the enlargement of the signals around pH = pKa,2. The data were fitted, and the corresponding protonation constants (Table 1) were obtained.
Small additions (∼μL) of HNO3 and/or NaOH were used to adjust the pH. The latter was measured as for the potentiometric measurements. Under highly acidic conditions, the pH was computed from the HNO3 concentration (pH = −logCH^+). An excitation sculpting pulse scheme was used to suppress the water signal.[32]
(§2) The thermodynamic data were elaborated with the least-squares fitting program PITMAP as described in our previous works.[22]−[25] […]

Data set [3] in a line: Acidity constants (pKa) of the free ligands by pH-potentiometric titration. It is filed as physicochemical. The conditions noted are these: T = 25 °C, I = 0.15 M NaNO3. The procedure: as §1
Potentiometric titrations were conducted using an automated titrating system (Metrohm 765 Dosimat) equipped with a combined glass electrode (Hamilton pH 0–14) and a Metrohm 713 pH meter at T = 25 °C under a N2 atmosphere. NaNO3 (0.15 M) was used to fix the ionic strength. Stock solutions of NO3S and TACN-n-Bu were freshly prepared by dissolution of the synthesized compounds (∼10^–3 M). To avoid carbonatation phenomena and facilitate the dissolution, prestandardized HNO3 (CH^+ = 4CL) was coadded to each ligand solution. The solubility of the ligands in water depends on pH: minimal values occur at pH > 12, where the noncharged, totally deprotonated form predominates. All of the titrations were conducted as previously described.[22]−[25] […] Each titration was performed independently, at least in quintuplicate.
as §2

Data set [4] is described as follows: Formation kinetics of Cu2+ complexes by UV-vis spectroscopy (time to reach equilibrium). It is filed as physicochemical. The conditions noted are these: ambient temperature. The procedure:
The formation kinetics of the Cu^2+ complexes with NO3S and TACN-n-Bu was qualitatively appraised by UV–vis spectroscopy at ambient temperature and different pH values to explore the time necessary to reach equilibrium. The spectrum of NO3S and TACN-n-Bu as free ligands is also reported for comparison purposes in Figure S15.
The formation kinetics of Cu^2+ complexes with NO3S and TACN-n-Bu was evaluated at different pH values at room temperature using UV–vis spectroscopy as previously reported.[24],[25] Briefly, equimolar amounts of Cu^2+ and the proper ligands were mixed, and the corresponding UV–vis spectra were recorded over time. The final concentrations were CCu^2+ = CL = 1.0 × 10^–4 M. The pH was controlled using the following buffers: HCl 10^–2 M (pH = 2), acetic acid/acetate (pH = 4), and 2-[4-(2-hydroxyethyl)piperazin-1-yl]ethanesulfonic acid (HEPES) (pH = 7.1).

Data set [5] in a line: Stability constants of Cu2+ complexes by UV-vis spectrophotometric batch titrations; pCu2+ calculation. The data set is classed as physicochemical. The conditions noted are these: for pCu^2+ (−log[Cu^2+]free): calculated at CL = 1 × 10^-5 M, CCu2+ = 1 × 10^-6 M, pH 7.4 from stability constants. On the procedure: The stability constants (logβ) of the Cu^2+ complexes formed by NO3S and TACN-n-Bu were determined via UV–vis spectrophotometric titrations. Due to both the slow complexation kinetics observed at acidic pH (vide supra) and the high complex stability, batch titrations were conducted and heating was applied to speed up reaching the equilibrium condition.
The stability of the Cu^2+ complexes with TACN-n-Bu was assessed as well to investigate the role of the sulfanyl pendants in metal coordination. The UV–vis spectra recorded at different pH values are shown in Figure 3B, and the variation of the absorbance at λ = 295 nm is reported in Figure S16B. The pCu^2+ values were then computed (Figure 5): being defined as −log[Cu^2+]free, the higher the pCu^2+ value, the greater the stability of the considered metal–ligand complex.[23]−[25]
UV–vis pH-spectrophotometric titrations were carried out as previously reported by means of the out-of-cell method at T = 25 °C and I = 0.15 M NaNO3.[24],[25] Briefly, stock solutions of NO3S or TACN-n-Bu were mixed with Cu(NO3)2 in independent vials at a 1:1 metal-to-ligand ratio (CCu^2+ = CL = 1.0 × 10^–4 M). The pH was adjusted as described in the NMR experiments. The vials were sealed and heated to T = 60 °C in a thermostatic bath to ensure complete complexation and then cooled to ambient temperature. The absorption spectra were recorded, and equilibrium was considered to be reached when no variations in either the pH or the electronic spectra were detected over time.
The thermodynamic data were elaborated with the least-squares fitting program PITMAP as described in our previous works.[22]−[25] All equilibrium constants refer to the overall equilibrium pM^m+ + qH^+ + rL^l– ⇌ MpHqLr^pm+q–rl, where M = Cu^2+ and L = NO3S or TACN-n-Bu, respectively, and are defined as cumulative formation constants (logβpqr = [MpLqHr]/[M]^p[L]^q[H]^r).

The nature of data set [6]: Cyclic voltammetry of the copper complex of NO3S (Cu2+/Cu+ couple); Cu+ stability constant and pCu+. It is filed as physicochemical. The procedure:
To assess the ability of NO3S to stably bind Cu^+, cyclic voltammetry (CV) analysis was executed. The investigation was performed in aqueous solution at pH ranging from 3 to 12. The obtained cyclic voltammograms, reported in Figure 7, show a peak couple attributable to the quasi-reversible one-electron reduction–oxidation process of the Cu^2+/Cu^+ redox pair (Table S9). No variation of the voltammetric behavior after multiple reduction–oxidation cycles was observed either with time or with the scan rate (except for the increase in the current intensity, i). This outcome is extremely significant because it proves the ability of NO3S to stabilize both copper oxidation states throughout the investigated pH range on the time scale of the CV experiments.
As illustrated in Figure 7 and Table S9, a pH-dependent variation of the cyclic voltammograms was found. […]
Bulk electrolysis of the preformed Cu^2+-NO3S complexes was carried out in a two-compartment cell. […] The electrolysis was performed at a fixed potential equal to E = −0.35 V and monitored by linear scan voltammetry on a rotating disk electrode. […] No variations of the ^1H NMR spectra were detected after 2 days (tubes were stored under a normal atmosphere). […]

Data set [7] can be described thus: Solubility in water observed during pKa measurements. The data set is classed as physicochemical. Conditions: basic pH, precipitate observed. On the procedure:
as §1
Potentiometric titrations were conducted using an automated titrating system (Metrohm 765 Dosimat) equipped with a combined glass electrode (Hamilton pH 0–14) and a Metrohm 713 pH meter at T = 25 °C under a N2 atmosphere. NaNO3 (0.15 M) was used to fix the ionic strength. Stock solutions of NO3S and TACN-n-Bu were freshly prepared by dissolution of the synthesized compounds (∼10^–3 M). […]

On the set-up of data set [8]: method as in Bianchi et al. [30]. The conditions noted are these: I = 0.1 M KNO3, T = 25 °C; ref Bianchi et al. [30]; cited from earlier work.
[9] abbreviates: I = 0.15 M NaNO3, read-out: pKa, H2L^2+ ⇌ H^+ + HL^+.
Setting [10] is: UV-vis spectrophotometric titrations, T = 25 °C, I = 0.15 M NaNO3.

Regarding `CSCCN1CCN(CCSC)CCN(CCSC)CCN(CCSC)CC1` [DO4S, 1,4,7,10-tetrakis-[2-(methylsulfanyl)ethyl]-1,4,7,10-tetraazacyclododecane], the “Percentage of intact [64Cu]Cu2+ complex in human serum” value in data set [1] is on record as 20%.

Usually pKa stands for the negative logarithm of the acid dissociation constant. Take `CSCCN1CCN(CCSC)CCN(CCSC)CC1` [NO3S]: the pKa in data set [2] (setting [9]) is 2.7 ± 0.02; in data set [2] (I = 0.15 M NaNO3, read-out: pKa, HL^+ ⇌ H^+ + L), 12.72 ± 0.08; in data set [3] (1:1 water/methanol, pH potentiometry in 1:1 water/methanol, read-out: pKa, H2L^2+ ⇌ H^+ + HL^+), 2.33 ± 0.04; in data set [3] (1:1 water/methanol, pH potentiometry in 1:1 water/methanol, read-out: pKa, HL^+ ⇌ H^+ + L) it was 11.52 ± 0.01. The “Time to reach Cu2+ complexation equilibrium” value in data set [4] (pH = 1.0, equimolar metal-to-ligand 10^-4 M) was about 14 h; in data set [4] (pH = 4.0, equimolar metal-to-ligand 10^-4 M), about 0.167 h; in data set [4] (pH = 7.1 (neutral), equimolar metal-to-ligand 10^-4 M), under 0.017 h. Further, in data set [5] (setting [10]), the “logβ, Cu^2+ + L + H2O ⇌ [CuL(OH)]^+ + H^+” value is reported as 9.08 ± 0.03. The “logβ, Cu^2+ + L ⇌ [CuL]^2+” value in data set [5] (setting [10]) is on record as 18.41 ± 0.05. Besides, in data set [5], the “pCu^2+ (−log[Cu^2+]free)” value was 14.3. Moreover, in data set [5] (physiological pH), the “Increase in Cu2+ complex stability (pCu^2+) with respect to TACN-n-Bu” value is 6 orders of magnitude. The “pCu^+” value in data set [6] (calculated at CL = 10^-5 M, CCu+ = 10^-6 M, pH = 7.4) was 14.0. The “logβ, Cu^+ + L ⇌ [CuL]^+” value in data set [6] (obtained from voltametric data, T = 25 °C, I = 0.15 M NaNO3) is recorded as 18.36 ± 0.05. Moreover, the “Solubility in water of the completely deprotonated neutral form (L)” value in data set [7] is recorded as “sparingly soluble”.

Regarding `O=C(O)CN1CCN(CC(=O)O)CCN(CC(=O)O)CC1` [NOTA, 1,4,7-triazacyclononane-1,4,7-triacetic acid, reference compound], in data set [5], the “pCu^2+ (−log[Cu^2+]free)” value was 18.2.

As for `C1CNCCNCCN1` [TACN, 1,4,7-triazacyclononane], in data set [8], the “pKa, H2L^2+ ⇌ H^+ + HL^+” value is on record as 6.86; the “pKa, H3L^3+ ⇌ H^+ + H2L^2+” value is reported as 2.1; the “pKa, HL^+ ⇌ H^+ + L” value was 10.68.

With `CN1CCN(C)CCN(C)CC1` [TACN-Me, 1,4,7-trimethyl-1,4,7-triazacyclonane], in data set [8], the “pKa, H2L^2+ ⇌ H^+ + HL^+” value is recorded as 5.1; the “pKa, H3L^3+ ⇌ H^+ + H2L^2+” value is “–0.4”; the “pKa, HL^+ ⇌ H^+ + L” value is recorded as 11.7.

As to `CCCCN1CCN(CCCC)CCN(CCCC)CC1` [TACN-n-Bu, 1,4,7-tris-n-butyl-1,4,7-triazacyclononane], the pKa in data set [2] (setting [9]) was 5.04 ± 0.05. For the same compound, the pKa in data set [3] (water, pH potentiometry, read-out: pKa, H2L^2+ ⇌ H^+ + HL^+) came to 5 ± 0.05. In data set [4] (neutral pH, equimolar metal-to-ligand 10^-4 M), the “Time to reach Cu2+ complexation equilibrium” value amounted to 8 h. Moreover, in data set [5] (setting [10]), the “logβ, Cu^2+ + HL^+ ⇌ [CuHL]^3+” value was 6.2 ± 0.1 and the “logβ, Cu^2+ + HL^+ ⇌ [CuL]^2+ + H^+” value is given as “–0.04 ± 0.15”.
